Where two headings read alike, the source gives them in different places.
Legend:
[1] = PK study of Form A of Compound I in dogs; format: in vivo; conditions: PO dose of 75 mg/kg
Experimental: The pharmacokinetics (PK) properties of Form A of Compound I and Form I of Compound II were determined in a series of comprehensive experiments in preclinical species including Sprague-Dawley rats, beagle dogs, cynomolgus monkeys. In those studies, the Form A crystalline salt of Compound I (and Form I crystalline salt of Compound II) was formulated in saline, 0.5% MC in saline or other commonly used suitable formulation vehicles to give a clear solution or as a suspension or a paste depending on the concentration intended to reach and the choice of vehicles. Dosing was by oral gavage. Blood samples were drawn and placed into individual tube containing K2EDTA. Blood samples were put on ice and centrifuged (2000 g for 5 minutes at 4° C.) to obtain plasma within 15 minutes after collection. Plasma samples were stored at approximately −80° C. freezer until analysis. For most of these analyses, Compound I (and Compound II) and the internal standard (IS) were extracted from rat, monkey or dog plasma by protein precipitation, and the extract was evaporated, reconstituted and analyzed using HPLC with tandem mass spectrometric detection (HPLC-MS/MS), see examples for further details. Calibration was accomplished by weighted linear regression of the ratio of the peak area of analyte to that of the added internal standard (IS). For the validated assay in rat and monkey EDTA plasma, the Lower Limit of Quantitation (LLOQ) for both compound 1 and 2 was 5.00 ng/mL, and the assay was linear from 5.00-1,000 ng/mL. PK parameters were calculated by non-compartmental analysis using WinNonlin (versions 4.1 through 6.1). Non-naïve Beagle Dog, 8.0-9.5 kg were used in the study. The dosing solution was prepared by dissolving 1.90 g of Form A of Compound I (1.67 g free base equivalent) in 222.237 mL of 0.5% MC and vortexed for 20 min, sonicated for 2 min to obtain a colorless clear solution. The animals were restrained manually, and approx. 0.6-1 mL blood/time point was collected from cephalic or saphenous veins into pre-cooled EDTA tubes. Blood samples were put on ice and centrifuged at 4° C. to obtain plasma within 30 minutes of sample collection. […] 5 μL of the supernatant was injected for LC-MS/MS analysis. • For dilution samples: • An aliquot of 10 μL plasma sample was added with 90 μL blank Beagle dog plasma. The dilution factor was 10. An aliquot of 30 μL dilution plasma was added with 200 μL IS in ACN (testosterone as IS, 100.0 ng/mL), the mixture was vortexed for 2 min and centrifuged at 12000 rpm for 5 min. 5 μL of the supernatant was injected for LC-MS/MS analysis.

[2] = Moisture sorption/desorption (DVS) of Compound I Form A; format: physicochemical; conditions: 25° C.
Experimental: Dynamic vapor sorption/desorption (DVS) data were collected on a VTI SGA-100 Vapor Sorption Analyzer. NaCl and PVP were used as calibration standards. Samples were not dried prior to analysis. Adsorption and desorption data were collected over a range from 5 to 95% RH at 10% RH increments under a nitrogen purge. The equilibrium criterion used for analysis was less than 0.0100% weight change in 5 minutes with a maximum equilibration time of 3 hours. Data were not corrected for the initial moisture content of the samples. Moisture sorption/desorption data were collected for the sample on a VTI […] Vapor Sorption Analyzer. NaCl and PVP were used as calibration standards. Samples were vacuum dried prior to analysis. Sorption and desorption data were collected over a range from 5 to 95% RH at 10% RH increments under a nitrogen purge. The equilibrium criterion used for analysis was less than 0.0100% weight change in 5 minutes with a maximum equilibration time of 3 hours. Data were not corrected for the initial moisture content of the samples. FIG. 15 illustrates the graphed Weight % vs. Relative Humidity.

[3] = beagle, dog, plasma, po, 75 mg/kg, Dog #1, read-out: plasma concentration
[4] = beagle, dog, plasma, po, 75 mg/kg, Dog #2, read-out: plasma concentration
[5] = beagle, dog, plasma, po, 75 mg/kg, Mean, read-out: mean plasma concentration
[6] = with respect to the initial sample weight

SMILES: COC(=O)N[C@H](C(=O)N1CCC[C@H]1c1ncc(-c2ccc3cc(-c4ccc5nc([C@@H]6CCCN6C(=O)[C@@H](NC(=O)OC)C(C)C)[nH]c5c4)ccc3c2)[nH]1)C(C)C [Form A of Compound I]
- plasma concentration ([1]; Beagle Dog, 0.083 hr, Dog #1): BQL
- concentration at 0.083 hr ([1]; beagle, dog, plasma, po, 75 mg/kg, 0.083 hr, Dog #2, read-out: plasma concentration): 5.92 ng/mL
- concentration at 0.083 hr ([1]; beagle, dog, plasma, po, 75 mg/kg, 0.083 hr, Mean, read-out: mean plasma concentration): 5.92 ng/mL
- concentration at 0.25 h [1, 3]: 267 ng/mL
- concentration at 0.25 h [1, 4]: 374 ng/mL
- concentration at 0.25 h [1, 5]: 320 ng/mL
- concentration at 0.5 h ([1]; beagle, dog, plasma, po, 75 mg/kg, 0.5 hr, Dog #1): 1090 ng/mL
- concentration at 0.5 hr ([1]; beagle, dog, plasma, po, 75 mg/kg, 0.5 hr, Dog #2, read-out: plasma concentration): 952 ng/mL
- concentration at 0.5 hr ([1]; beagle, dog, plasma, po, 75 mg/kg, 0.5 hr, Mean, read-out: mean plasma concentration): 1020 ng/mL
- concentration at 1 hr [1, 3]: 1590 ng/mL
- concentration at 1 hr [1, 4]: 2050 ng/mL
- concentration at 1 hr [1, 5]: 1820 ng/mL
- concentration at 2 hr [1, 3]: 2980 ng/mL
- concentration at 2 hr [1, 4]: 2400 ng/mL
- concentration at 2 hr [1, 5]: 2690 ng/mL
- concentration at 4 hr [1, 3]: 3080 ng/mL
- concentration at 4 hr [1, 4]: 1540 ng/mL
- concentration at 4 hr [1, 5]: 2310 ng/mL
- concentration at 6 hr [1, 3]: 3590 ng/mL
- concentration at 6 hr [1, 4]: 1320 ng/mL
- concentration at 6 hr [1, 5]: 2450 ng/mL
- concentration at 8 hr [1, 3]: 3500 ng/mL
- concentration at 8 hr [1, 4]: 1040 ng/mL
- concentration at 8 hr [1, 5]: 2270 ng/mL
- concentration at 24 hr [1, 3]: 244 ng/mL
- concentration at 24 hr [1, 4]: 2160 ng/mL
- concentration at 24 hr [1, 5]: 1200 ng/mL
- Weight % chg ([2]; desorption, Samp RH 5.17 %): 0.673%
- Weight % chg ([2]; desorption, Samp RH 14.73 %): 2.010%
- Weight % chg ([2]; desorption, Samp RH 25.12 %): 3.025%
- Weight % chg ([2]; desorption, Samp RH 35.13 %): 3.870%
- Weight % chg ([2]; desorption, Samp RH 44.99 %): 4.590%
- Weight % chg ([2]; desorption, Samp RH 55.17 %): 5.352%
- Weight % chg ([2]; desorption, Samp RH 65.08 %): 5.993%
- Weight % chg ([2]; desorption, Samp RH 75.27 %): 6.741%
- Weight % chg ([2]; desorption, Samp RH 85.24 %): 7.855%
- Weight % chg ([2]; sorption, Samp RH 5.09 %): −0.187%
- Weight % chg ([2]; sorption, Samp RH 14.73 %): 0.065%
- Weight % chg ([2]; sorption, Samp RH 24.93 %): 0.303%
- Weight % chg ([2]; sorption, Samp RH 34.87 %): 0.521%
- Weight % chg ([2]; sorption, Samp RH 44.91 %): 0.780%
- Weight % chg ([2]; sorption, Samp RH 54.80 %): 1.082%
- Weight % chg ([2]; sorption, Samp RH 64.95 %): 1.458%
- Weight % chg ([2]; sorption, Samp RH 74.71 %): 1.868%
- Weight % chg ([2]; sorption, Samp RH 84.57 %): 2.502%
- Weight % chg ([2]; sorption, Samp RH 94.86 %): 10.824%
- % wt change upon equilibration at 5% RH [2, 6]: −0.187 % wt
- % wt gain from 5%-85% RH [2, 6]: 2.689 % wt
- % wt gain from 85%-95% RH [2, 6]: 8.322 % wt
- % wt lost from 95%-5% RH [2, 6]: 10.151 % wt

Source: patent US20150203474A1, “SOLID FORMS COMPRISING INHIBITORS OF HCV NS5A, COMPOSITIONS THEREOF, AND USES THEREWITH” (PRESIDIO PHARMACEUTICALS ,INC., priority 2012, published 2015)
